Tested on: Carrageenan induzierten Rattenpfotenödem
Assay: Carrageenan-induced rat paw oedema test
Assay type: in vivo, Ratte
Conditions: 10 mg/kg i.v.
Description: Die antiphlogistische Wirkung der erfindungsgemäßen Polysaccharide wurde im Carrageenan induzierten Rattenpfotenödemtest untersucht (Winter, C.A. et al., Proc. Soc. Exp. Biol. Med. 111, 544 (1962)).

## COc1ccc2c(c1)c(CC(=O)O)c(C)n2C(=O)c1ccc(Cl)cc1 [Indometacin]
  Hemmung des Rattenpfotenödems nach 8 Stunden: Indometacin 10 mg/kg i.v. 22,9%

From patent publication EP0422618A1, “Polysaccharides with antiphlogistic activity, method for obtaining them and pharmaceutical compositions containing the same” (LOMAPHARM Rudolf Lohmann GmbH KG Pharmazeutische Fabrik, priority 1989, dated 1991)
